Source: patent publication US8962837B2, “Nitrogen heterocycle derivatives, preparation thereof and application thereof in human therapeutics” (Pierre Fabre Medicament, priority 2010, dated 2015)
Like-named read-outs stand apart in the source and are kept apart here.

Columns and labels:
[1] = biological target: Human SCD-1 (Homo sapiens (Human), UniProt O00767); assay: Human SCD-1 enzyme activity using HepG2 cell microsomes (conversion of stearic acid to oleic acid); assay type: biochemical; conditions: 20 minutes at 37° C., relative to 0.1% DMSO vehicle, read-out: HSCD-1 (HEPG2) IC50
Description: Human SCD-1 enzyme activity using HepG2 cell microsomes after treating with inhibitory compounds (% inhibition):
Human hepatocarcinoma HepG2 cells (ATCC, HB-8065) are cultured to confluence and trypsinised. The cell pellet is taken up with 10 mM Tris (pH 7.4) sucrose (250 mM) DTT (1 mM) buffer and the cells are lysed by sonication. The microsomes are obtained after centrifugation at 10,000 g for 20 minutes at 4° C. followed by centrifugation of the supernatant at 100,000 g for 60 minutes at 4° C. The pellet is taken up with 10 mM Tris (pH 7.4) sucrose (250 mM) buffer at 4° C. and the microsomal proteins are assayed and stored at −196° C. (liquid nitrogen).
The enzyme reaction measures the conversion of stearic acid (C18:0 fatty acid) to oleic acid (C18:1 fatty acid) by SCD-1. The enzyme reaction is started by adding 125 μg of HepG2 cell microsomal fraction to tubes (total reaction volume of 500 μl) containing 62 μM of stearic acid (45 μM of stearic acid 17 μM of [^14C] stearic acid) in a 100 mM phosphate buffer (pH 7.16) with 7.2 mM of ATP, 0.54 mM of CoA, 6 mM of MgCl2, 0.8 mM of NADH and the inhibitory compound or the vehicle (0.1% DMSO). The tubes are incubated for 20 minutes at 37° C. and the enzyme reaction is stopped by adding KOH (12%) and saponification for 30 minutes at 80° C. After acidification (3N HCl), the fatty acids are extracted twice with ethyl ether, evaporated in nitrogen before being taken up with methanol/dichloromethane (3:1). The reaction product (C18:1) is separated from the reaction substrate (C18:0) by HPLC (Perkin Elmer, C18 reverse phase column) coupled with an online radioactivity detector (FlowOne). The enzyme activity is calculated in picomoles of stearic acid converted into oleic acid per minute and per mg of protein. For each inhibitory compound, an IC50 is determined in relation to the reference enzyme activity (0.1% DMSO vehicle). Sterculic acid is the reference inhibitory compound (Gomez F. E., Bauman D. E., Ntambi J. M., Fox B. G. Effects of sterculic acid on stearoyl-CoA desaturase in differentiating 3T3-L1 adipocytes. Biochem Biophys Res Commun. 300 316-326 (2003).

[2] = test system: sebaceous glands; assay: Topical application of SCD-1 inhibitory compounds to NMRI mice: reduction in number and size of sebaceous glands; assay type: in vivo; conditions: Mus musculus, 120 h, twice daily, treatment time 5 days; for inhibition in vivo at 0.3 %: concentration 0.3%; for inhibition in vivo at 1 %: concentration 1%
Description: Topical application of SCD-1 inhibitory compounds to NMRI mice: reduction in number and size of sebaceous glands.
Experimental protocol: Crl:NMRI male mice (24-26 g) are shaved (2×2 cm^2 minimum) 2-3 days before the first application of molecules under test. To prevent potential oral intake of the molecules, the animals are accommodated individually.
The molecules are solubilised in the ethanol/propylene glycol (30/70, v/v) vehicle are a maximum concentration of 1%. 50 μl of each preparation (molecule under test, or vehicle) are applied twice daily for 5 consecutive days on the 2 cm^2 shaved area, with the cone of a pipette with a number of to-and-fro movements. At least 6 hours after the final application, the mice are euthanised, the skin samples are taken and fixed immediately to produce paraffin sections; a histomorphometric analysis after Haematoxylin/Eosin staining is carried out.
For each animal, at least 3 sections approximately 10 mm in length are read blind by 3 people, and the efficacy of the molecules on sebaceous gland atrophy is assessed quantitatively (number) and qualitatively (relative score, size). The duration of action, the reversibility of the effect are verified in the same way by modifying the application sequences.

[3] = test system: HCT-116 tumour cells; assay: Cytotoxic / anti-proliferation activity on human colon cancer cell line HCT-116 (ATP-lite); assay type: cell-based; conditions: 72 hours
Description: Cytotoxic activities with respect to human colon cancer cell lines (HCT-116):
HCT-116 tumour cells are inoculated in a 96-well plate in RPMI 1640 medium to which 5% foetal calf serum is added (100 μl/well, respectively at 1.5 10^4 cells/ml). After 24 hours of incubation at 37° C. in an incubator at 5% CO2, 11 μl of medium containing the compound under test at a concentration 10 times greater than the final concentration are added. The plates are incubated for a further 72 hours. Cell survival is evaluated by measuring the luminescence after releasing ATP in the medium using the cell lysis, luciferase and luciferin solutions contained in the ATP-lite-M™ kit as recommended by the manufacturer (Packard, Rungis, France). Each experimental condition was replicated at least three times independently with one well reading in sextuplet per dose interval.

[4] = HCT-116, HTC116 human tumour line, read-out: EC50 (anti-proliferation activity)
[5] = Homo sapiens, HCT-116 tumour line cells, read-out: 50% inhibitory concentration (EC50), concentration inhibiting cell proliferation by 50%

Chain of Human SCD-1 (O00767 whole entry): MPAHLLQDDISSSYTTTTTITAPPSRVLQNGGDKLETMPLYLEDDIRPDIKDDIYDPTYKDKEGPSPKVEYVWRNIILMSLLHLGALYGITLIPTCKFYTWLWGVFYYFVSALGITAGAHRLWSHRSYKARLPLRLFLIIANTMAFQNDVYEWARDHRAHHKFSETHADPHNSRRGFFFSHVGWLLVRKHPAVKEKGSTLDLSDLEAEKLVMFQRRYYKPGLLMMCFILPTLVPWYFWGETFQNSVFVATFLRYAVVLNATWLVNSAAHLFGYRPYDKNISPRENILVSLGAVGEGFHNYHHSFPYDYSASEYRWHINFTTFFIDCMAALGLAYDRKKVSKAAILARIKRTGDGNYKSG

SMILES	IC50 [1]	other results
Cn1cc(Cl)nc(N2CCC(Oc3ccccc3Cl)CC2)c1=O [Example 6, 5-Chloro-3-[4-(2-chloro-phenoxy)-piperidin-1-yl]-1-methyl-1H-pyrazin-2-one]	100 to 1000 nM	inhibition in vivo at 0.3 % [2]: 79%
Cn1cc(Cl)nc(N2CCC(Oc3ccccc3C(F)(F)F)CC2)c1=O [Example 7, 5-Chloro-1-methyl-3-[4-(2-trifluoromethyl-phenoxy)-piperidin-1-yl]-1H-pyrazin-2-one]	100 to 300 nM	inhibition in vivo at 0.3 % [2]: 75%
Cn1cc(Cl)nc(N2CCC(Oc3cc(C(F)(F)F)ccc3Cl)CC2)c1=O [Example 8]	100 to 300 nM	inhibition in vivo at 0.3 % [2]: 95%
Cc1ccccc1OC1CCN(c2nc(Cl)cn(C)c2=O)CC1 [Example 9, 5-Chloro-1-methyl-3-(4-o-tolyloxy-piperidin-1-yl)-1H-pyrazin-2-one]	100 to 1000 nM	inhibition in vivo at 0.3 % [2]: 43%
Cn1ccnc(N2CCC(Oc3ccccc3C(F)(F)F)CC2)c1=O [Example 11, 1-Methyl-3-[4-(2-trifluoromethyl-phenoxy)-piperidin-1-yl]-1H-pyrazin-2-one]	100 nM	inhibition in vivo at 1 % [2]: 45%
Cn1cc(Cl)nc(N2CCC(Oc3cc(F)ccc3Cl)CC2)c1=O [Example 12, 5-Chloro-3-[4-(2-chloro-5-fluoro-phenoxy)-piperidin-1-yl]-1-methyl-1H-pyrazin-2-one]	10 to 30 nM	inhibition in vivo at 0.3 % [2]: 94%; EC50 [3, 4]: 60 nM; EC50 [3, 5]: 60 nM
Clc1ccccc1OC1CCN(c2nccnn2)CC1 [Example 13, 3-[4-(2-Chloro-phenoxy)-piperidin-1-yl]-[1,2,4]triazine]	100 to 1000 nM	–
FC(F)(F)c1ccccc1OC1CCN(c2nccnn2)CC1 [Example 14, 3-[4-(2-Trifluoromethyl-phenoxy)-piperidin-1-yl]-[1,2,4]triazine]	100 to 1000 nM	–
FC(F)(F)c1ccc(Cl)c(OC2CCN(c3nccnn3)CC2)c1 [Example 17, 3-[4-(2-Chloro-5-trifluoromethyl-phenoxy)-piperidin-1-yl]-[1,2,4]triazine]	100 nM	inhibition in vivo at 1 % [2]: 97%; EC50 [3, 4]: 230 nM; EC50 [3, 5]: 230 nM
Fc1ccc(Cl)c(OC2CCN(c3nccnn3)CC2)c1 [Example 18, 3-[4-(2-Chloro-5-fluoro-phenoxy)-piperidin-1-yl]-[1,2,4]triazine]	30 nM	–
Cc1nnc(N2CCC(Oc3cc(C(F)(F)F)ccc3Cl)CC2)nc1C [Example 19, 3-[4-(2-Chloro-5-trifluoromethyl-phenoxy)-piperidin-1-yl]-5,6-dimethyl-[1,2,4]triazine]	100 to 1000 nM	–
Cc1cnnc(N2CCC(Oc3cc(F)ccc3Cl)CC2)n1 [Example 25, 3-[4-(2-Chloro-5-fluoro-phenoxy)-piperidin-1-yl]-5-methyl-[1,2,4]triazine]	100 nM	–
Cc1cnnc(N2CCC(Oc3cc(C(F)(F)F)ccc3Cl)CC2)n1 [Example 27, 3-[4-(2-Chloro-5-trifluoromethyl-phenoxy)-piperidin-1-yl]-5-methyl-[1,2,4]triazine]	300 nM	–
Cc1cnnc(N2CCC(Oc3ccccc3Cl)CC2)n1 [Example 28, 3-[4-(2-Chloro-phenoxy)-piperidin-1-yl]-5-methyl-[1,2,4]triazine]	300 to 1000 nM	–
Cc1cnc(N2CCC(Oc3cc(F)ccc3Cl)CC2)nn1 [Example 30, 3-[4-(2-Chloro-5-fluoro-phenoxy)-piperidin-1-yl]-6-methyl-[1,2,4]triazine]	100 nM	–
O=[N+]([O-])c1ccc(Cl)c(OC2CCN(c3nccnn3)CC2)c1 [Example 32, 3-[4-(2-Chloro-5-nitro-phenoxy)-piperidin-1-yl]-[1,2,4]triazine]	30 to 100 nM	–
Fc1cc(Br)c(OC2CCN(c3nccnn3)CC2)cc1F [Example 33, 3-[4-(2-Bromo-4,5-difluoro-phenoxy)-piperidin-1-yl]-[1,2,4]triazine]	10 to 100 nM	–
O=[N+]([O-])c1ccccc1OC1CCN(c2nccnn2)CC1 [Example 35, 3-[4-(2-Nitro-phenoxy)-piperidin-1-yl]-[1,2,4]triazine]	100 to 1000 nM	–
FC(F)(F)c1ccccc1NC1CCN(c2nccnn2)CC1 [Example 36]	30 nM	–
CC1CN(c2nccnn2)CCC1Oc1cc(C(F)(F)F)ccc1Cl (stereo not drawn) [Example 37, 3-[4-(2-Chloro-5-trifluoromethyl-phenoxy)-3-methyl-piperidin-1-yl]-[1,2,4]triazine]	100 to 1000 nM	–
CC1CN(c2nccnn2)CCC1Oc1cc(Cl)ccc1Cl (stereo not drawn) [Example 38, 3-[4-(2,5-Dichloro-phenoxy)-3-methyl-piperidin-1-yl]-[1,2,4]triazine]	300 to 1000 nM	–
Cn1nccc(N2CCC(Oc3cc(C(F)(F)F)ccc3Cl)CC2)c1=O [Example 40, 4-[4-(2-Chloro-5-trifluoromethyl-phenoxy)-piperidin-1-yl]-2-methyl-2H-pyridazin-3-one]	100 to 300 nM	inhibition in vivo at 0.1 % ([2]; concentration 0.1%): 36%
FC(F)(F)c1ccc(Cl)c(OC2CCN(c3nccnn3)C2)c1 (stereo not drawn) [Example 42, 3-[3-(2-Chloro-5-trifluoromethyl-phenoxy)-pyrrolidin-1-yl]-[1,2,4]triazine]	300 to 1000 nM	–
CCCCCCCCC1=C(CCCCCCCC(=O)O)C1 [Sterculic acid, reference compound]	300 nM	–
